Biological target: T1, Adenosine deaminase (ADA) (Bos taurus, UniProt P56658)
T1 sequence (P56658 2-363): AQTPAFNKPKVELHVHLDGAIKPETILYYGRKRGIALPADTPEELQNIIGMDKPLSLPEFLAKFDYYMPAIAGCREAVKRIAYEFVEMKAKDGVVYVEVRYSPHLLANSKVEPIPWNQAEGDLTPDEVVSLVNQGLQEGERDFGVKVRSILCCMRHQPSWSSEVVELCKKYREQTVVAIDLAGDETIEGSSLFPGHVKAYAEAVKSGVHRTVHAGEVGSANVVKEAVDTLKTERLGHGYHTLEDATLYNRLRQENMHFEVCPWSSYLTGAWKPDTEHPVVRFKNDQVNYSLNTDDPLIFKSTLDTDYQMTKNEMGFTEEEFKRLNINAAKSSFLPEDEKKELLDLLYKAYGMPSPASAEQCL
Test: biochemical

CCCCCC[C@@H]([C@@H](C)O)n1cnc2c(N)ncnc21 (racemic) [EHNA, erythro-9-(2-hydroxy-3-nonyl)adenine]
IC50: 64 nM
